“Also recorded” adds a separate entry of the source.
Molecular target: dopamine transporter (DAT) (Rattus norvegicus (Rat), UniProt P23977)
Assay: [3H]dopamine (DA) uptake inhibition in rat brain (caudate) synaptosomes
Type: biochemical
Conditions: for DA Uptake Emax / EC50: rat caudate synaptosomes, 5 nM [3H]dopamine, mean ± SD; for One-Site Emax / Two-Site Emax-1 / Two-Site Emax-2: [3H]DA uptake; for One-Site Emax: one-component fit; for Two-Site Emax-1 / Two-Site Emax-2: two-component fit; for Two-Site Emax-1: component 1; for Two-Site Emax-2: component 2
Protocol: Uptake inhibition assay for the dopamine transporter was conducted in rat brain synaptosomes as described elsewhere with minor modifications (Rothman et al., Synapse 39, 32-41 (2001)). Freshly removed caudate was homogenized in 10% ice-cold sucrose with 12 strokes of a hand-held Potter-Elvehjem homogenizer followed by centrifugation at 1000×g for 10 min. The supernatants were saved on ice and used immediately. Transporter activity was assessed using 5 nM [^3H]dopamine. The assay buffer was Krebs-phosphate buffer containing 154.4 mM NaCl, 2.9 mM KCl, 1.1 mM CaCl2, 0.83 mM MgCl2, 5 mM glucose, 1 mg/mL ascorbic acid, and 50 μM pargyline. The selectivity of the uptake assay for DAT was optimized by including 100 nM citalopram and 100 nM desipramine as blockers of SERT and NET in the sucrose solution and assay buffer. Uptake inhibition assays were conducted at 25° C. and were initiated by adding 100 μl of tissue to 900 μL assay buffer containing test drug and [^3H]dopamine. Test drugs were diluted in assay buffer containing 1 mg/mL bovine serum albumin. Nonspecific uptake was measured by incubating in the presence of 10 μM indatraline. The reactions were stopped after 15 minutes by rapid vacuum filtration with a cell harvester (BRANDEL) over GF/B filters (Whatman) presoaked in wash buffer maintained at 25° C. (10 mM Tris-HCl, pH 7.4/150 mM NaCl). Filters were rinsed with 6 mL wash buffer and retained tritium was quantified by a MicroBeta liquid scintillation counter (PerkinElmer) after overnight extraction in 0.6 mL of liquid scintillation cocktail (Cytoscint, ICN). The data from three experiments were pooled and fit to a dose-response curve equation (using Kaleidagraph), to yield an Emax and EC50 value.
All of the test compounds were synthesized as described herein. Next, 8-point dose-response curves were generated for each compound (1-20,000 nM) in the [^3H]DA uptake assay. The data from three experiments were pooled and fit to a dose-response curve equation (using KaleidaGraph; Synergy Software, Reading, Pa.) to yield an Emax and IC50 value. […] Selected compounds were also tested for their ability to inhibit [^3H]WIN35428 binding to rat caudate DAT.

Chain of dopamine transporter (DAT) (P23977 whole entry): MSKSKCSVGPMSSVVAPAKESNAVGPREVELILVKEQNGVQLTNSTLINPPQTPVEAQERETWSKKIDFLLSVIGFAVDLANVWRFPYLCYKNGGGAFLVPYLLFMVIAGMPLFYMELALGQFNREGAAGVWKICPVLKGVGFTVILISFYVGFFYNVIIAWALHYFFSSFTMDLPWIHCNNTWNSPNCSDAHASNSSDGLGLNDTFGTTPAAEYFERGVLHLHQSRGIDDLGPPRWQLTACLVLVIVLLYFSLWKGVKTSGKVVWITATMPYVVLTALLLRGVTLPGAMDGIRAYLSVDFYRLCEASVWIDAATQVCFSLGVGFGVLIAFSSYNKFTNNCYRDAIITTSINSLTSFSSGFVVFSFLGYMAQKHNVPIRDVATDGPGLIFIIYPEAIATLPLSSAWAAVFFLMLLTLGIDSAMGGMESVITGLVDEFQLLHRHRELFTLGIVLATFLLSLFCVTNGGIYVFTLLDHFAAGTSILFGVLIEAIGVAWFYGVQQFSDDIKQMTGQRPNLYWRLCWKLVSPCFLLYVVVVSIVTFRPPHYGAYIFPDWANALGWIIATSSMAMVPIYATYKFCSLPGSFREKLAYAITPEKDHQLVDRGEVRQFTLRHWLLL

Compound | DA Uptake Emax | EC50 | Efficacy of [3H]DA (DAT) uptake inhibition, in words | One-Site Emax | Two-Site Emax-1 | Two-Site Emax-2
CS(=O)(=O)Nc1ccc(-c2nc(NCC(c3ccccc3)c3cccnc3)c3ccccc3n2)cc1 (centres unmarked) [Compound 25, N-(4-(4-((2-phenyl-2-(pyridin-3-yl)ethyl)amino)quinazolin-2-yl)phenyl)methanesulfonamide] | 73 ± 2 % I | 25 ± 4 nM |  |  |  | 
CN(C)c1ccc(-c2nc(NCC(Cc3ccccc3)c3ccccc3)c3ccccc3n2)cc1 (centres unmarked) [Compound 26, 2-(4-(dimethylamino)phenyl)-N-(2,3-diphenylpropyl)quinazolin-4-amine] | 78 ± 3 % I | 39 ± 9 nM |  |  |  | 
CS(=O)(=O)Nc1ccc(-c2nc(NCC(Cc3ccccc3)c3ccccc3)c3ccccc3n2)cc1 (centres unmarked) [Compound 27, N-(4-(4-((2,3-diphenylpropyl)amino)quinazolin-2-yl)phenyl)methanesulfonamide] | 76 ± 2 % I | 58 ± 9 nM |  |  |  | 
Cc1cc(N(C)C)ccc1-c1nc(NCC(c2ccccc2)c2ccc(CO)[nH]2)c2ccccc2n1 (centres unmarked) [Compound 28, (5-(2-((2-(4-(dimethylamino)-2-methylphenyl)quinazolin-4-yl)amino)-1-phenylethyl)-1H-pyrrol-2-yl)methanol] | 84 ± 5 % I | 18 ± 7 nM |  |  |  | 
CS(=O)(=O)Nc1ccc(-c2nc(NCC(c3cccnc3)c3ccc[nH]3)c3ccccc3n2)cc1 (centres unmarked) [Compound 30, N-(4-(4-((2-(pyridin-3-yl)-2-(1H-pyrrol-2-yl)ethyl)amino)quinazolin-2-yl)phenyl)methanesulfonamide] | 79 ± 3 % I | 202 ± 42 nM |  |  |  | 
CN(C)c1ccc(-c2nc(NCC(c3cccnc3)c3ccc[nH]3)c3ccccc3n2)cc1 (centres unmarked) [Compound 31, 2-(4-(dimethylamino)phenyl)-N-(2-(pyridin-3-yl)-2-(1H-pyrrol-2-yl)ethyl)quinazolin-4-amine] | 85 ± 4 % I | 47 ± 12 nM |  |  |  | 
CS(=O)(=O)Nc1ccc(-c2nc(NCC(c3ccccn3)c3ccc[nH]3)c3ccccc3n2)cc1 (centres unmarked) [Compound 32, N-(4-(4-((2-(pyridin-2-yl)-2-(1H-pyrrol-2-yl)ethyl)amino)quinazolin-2-yl)phenyl)methanesulfonamide] | 73 ± 3 % I | 379 ± 80 nM |  |  |  | 
CN(C)c1ccc(-c2nc(NCC(c3ccccn3)c3ccc[nH]3)c3ccccc3n2)cc1 (centres unmarked) [Compound 33, 2-(4-(dimethylamino)phenyl)-N-(2-(pyridin-2-yl)-2-(1H-pyrrol-2-yl)ethyl)quinazolin-4-amine] | 89 ± 4 % I | 65 ± 18 nM |  |  |  | 
CN(C)c1ccc(-c2nc(NCC(c3ccncc3)c3ccncc3)c3ccccc3n2)cc1 [Compound 34, N-(2,2-di(pyridin-4-yl)ethyl)-2-(4-(dimethylamino)phenyl)quinazolin-4-amine] | 78 ± 3 % I | 21 ± 5 nM |  |  |  | 
CS(=O)(=O)Nc1ccc(-c2nc(NCC(c3ccncc3)c3ccncc3)c3ccccc3n2)cc1 [Compound 35, N-(4-(4-((2,2-di(pyridin-4-yl)ethyl)amino)quinazolin-2-yl)phenyl)methanesulfonamide] | 70 ± 2 % I | 47 ± 10 nM |  |  |  | 
CN(C)c1ccc(-c2nc(NCCc3ccccc3)c3ccccc3n2)cc1 [Compound 36, 2-(4-(dimethylamino)phenyl)-N-phenethylquinazolin-4-amine] | 100 ± 1 % I | 156 ± 12 nM | fully inhibits; also recorded: full-efficacy | 100 ± 1.5 % I | 76 ± 54 % I | 27 ± 53 % I
CS(=O)(=O)Nc1ccc(-c2nc(NCCc3ccccc3)c3ccccc3n2)cc1 [Compound 37, N-(4-(4-(phenethylamino)quinazolin-2-yl)phenyl)methanesulfonamide] | 86 ± 6 % I | 159 ± 54 nM |  |  |  | 
CN(C)c1ccc(-c2nc(NCC(C)(c3ccccc3)c3ccccc3)c3ccccc3n2)cc1 [Compound 38, 2-(4-(dimethylamino)phenyl)-N-(2,2-diphenylpropyl)quinazolin-4-amine] | 68 ± 3 % I | 15 ± 4 nM |  |  |  | 
CC(CNc1nc(-c2ccc(NS(C)(=O)=O)cc2)nc2ccccc12)(c1ccccc1)c1ccccc1 [Compound 39, N-(4-(4-((2,2-diphenylpropyl)amino)quinazolin-2-yl)phenyl)methanesulfonamide] | 67 ± 2 % I | 16 ± 3 nM |  |  |  | 
CN(C)c1ccc(-c2nc(NC(Cc3ccccc3)c3ccccc3)c3ccccc3n2)cc1 (centres unmarked) [Compound 40, 2-(4-(dimethylamino)phenyl)-N-(1,2-diphenylethyl)quinazolin-4-amine] | 72 ± 2 % I | 40 ± 8 nM |  |  |  | 
CS(=O)(=O)Nc1ccc(-c2nc(NC(Cc3ccccc3)c3ccccc3)c3ccccc3n2)cc1 (centres unmarked) [Compound 41, N-(4-(4-((1,2-diphenylethyl)amino)quinazolin-2-yl)phenyl)methanesulfonamide] | 69 ± 3 % I | 50 ± 14 nM |  |  |  | 
CS(=O)(=O)Nc1ccc(-c2nc(NC(CCc3ccccc3)c3ccccc3)c3ccccc3n2)cc1 (centres unmarked) [Compound 42, N-(4-(4-((1,3-diphenylpropyl)amino)quinazolin-2-yl)phenyl)methanesulfonamide] | 72 ± 2 % I | 71 ± 11 nM |  |  |  | 
CN(C)c1ccc(-c2nc(NC(CCc3ccccc3)c3ccccc3)c3ccccc3n2)cc1 (centres unmarked) [Compound 43, 2-(4-(dimethylamino)phenyl)-N-(1,3-diphenylpropyl)quinazolin-4-amine] | 70 ± 4 % I | 75 ± 22 nM |  |  |  | 
CC(C)C(CNc1nc(-c2ccc(N(C)C)cc2)nc2ccccc12)c1ccccc1 (centres unmarked) [Compound 44, 2-(4-(dimethylamino)phenyl)-N-(3-methyl-2-phenylbutyl)quinazolin-4-amine] | 84 ± 5 % I | 30 ± 10 nM |  |  |  | 
CC(C)C(CNc1nc(-c2ccc(NS(C)(=O)=O)cc2)nc2ccccc12)c1ccccc1 (centres unmarked) [Compound 45, N-(4-(4-((3-methyl-2-phenylbutyl)amino)quinazolin-2-yl)phenyl)methanesulfonamide] | 78 ± 4 % I | 20 ± 6 nM |  |  |  | 
CCN(CC)C(=O)[C@]1(c2ccccc2)C[C@@H]1CNc1nc(-c2ccc(N(C)C)cc2)nc2ccccc12 [Compound 46, (1R,2S)-2-(((2-(4-(dimethylamino)phenyl)quinazolin-4-yl)amino)methyl)-N,N-diethyl-1-phenylcyclopropanecarboxamide] | 93 ± 1 % I | 243 ± 18 nM |  |  |  | 
Cc1cc(NS(C)(=O)=O)ccc1-c1nc(NCC(c2ccncc2)c2ccncc2)c2ccccc2n1 [Compound 47, N-(4-(4-((2,2-di(pyridin-4-yl)ethyl)amino)quinazolin-2-yl)-3-methylphenyl)methanesulfonamide] | 67 ± 4 % I | 84 ± 25 nM |  |  |  | 
CN(C)c1ccc(-c2nc(NCC(Oc3ccccc3)c3ccccc3)c3ccccc3n2)cc1 (centres unmarked) [Compound 48, 2-(4-(dimethylamino)phenyl)-N-(2-phenoxy-2-phenylethyl)quinazolin-4-amine] | 72 ± 3 % I | 42 ± 10 nM |  |  |  | 
CS(=O)(=O)Nc1ccc(-c2nc(NCC(Oc3ccccc3)c3ccccc3)c3ccccc3n2)cc1 (centres unmarked) [Compound 49, N-(4-(4-((2-phenoxy-2-phenylethyl)amino)quinazolin-2-yl)phenyl)methanesulfonamide] | 67 ± 2 % I | 30 ± 5 nM |  |  |  | 
c1ccc(C(CNc2nc(-c3ccc4c(c3)CCN4)nc3ccccc23)c2ccccc2)cc1 [SRI-29986] |  |  | partial inhibitors | 75 ± 3 % I | 37 × 10^8 ± 2.7 × 10^8 % I | 37 × 10^8 ± 0.7 × 10^8 % I

— US10087148B2, “Quinazolines as biogenic amine transport modulators” (THE UNITED STATES OF AMERICA AS REPRESENTED BY THE …, priority 2014, dated 2018)
